Experiments:
Format in all cases: biochemical
[1] = biological target: T1, EGFR (Homo sapiens, UniProt P00533); assay: Kinase inhibition assay (33P transfer), EGFR; conditions: Table 2, kinase inhibition class; read-out: EGFR-1
T1 construct: Kinases are expressed as either kinase domains or full length constructs; made in house
Procedure, shortened: (§1)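 Steps: coat wells with poly(Glu,Tyr) 4:1 or poly(Arg,Ser) 3:1; add purified kinase, [33P]ATP and inhibitor; incubate; wash with 0.5% phosphoric acid; add liquid scintillant; count. IC50 corresponds to half-maximal reduction of bound 33P.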

[2] = biological target: T2, Itk (Homo sapiens, UniProt Q08881); assay: Kinase inhibition assay (33P transfer), Itk; conditions: Table 3; read-out: Itk-1
T2 construct: Kinases are expressed as either kinase domains or full length constructs; made in house
T2 sequence (Q08881 1-620): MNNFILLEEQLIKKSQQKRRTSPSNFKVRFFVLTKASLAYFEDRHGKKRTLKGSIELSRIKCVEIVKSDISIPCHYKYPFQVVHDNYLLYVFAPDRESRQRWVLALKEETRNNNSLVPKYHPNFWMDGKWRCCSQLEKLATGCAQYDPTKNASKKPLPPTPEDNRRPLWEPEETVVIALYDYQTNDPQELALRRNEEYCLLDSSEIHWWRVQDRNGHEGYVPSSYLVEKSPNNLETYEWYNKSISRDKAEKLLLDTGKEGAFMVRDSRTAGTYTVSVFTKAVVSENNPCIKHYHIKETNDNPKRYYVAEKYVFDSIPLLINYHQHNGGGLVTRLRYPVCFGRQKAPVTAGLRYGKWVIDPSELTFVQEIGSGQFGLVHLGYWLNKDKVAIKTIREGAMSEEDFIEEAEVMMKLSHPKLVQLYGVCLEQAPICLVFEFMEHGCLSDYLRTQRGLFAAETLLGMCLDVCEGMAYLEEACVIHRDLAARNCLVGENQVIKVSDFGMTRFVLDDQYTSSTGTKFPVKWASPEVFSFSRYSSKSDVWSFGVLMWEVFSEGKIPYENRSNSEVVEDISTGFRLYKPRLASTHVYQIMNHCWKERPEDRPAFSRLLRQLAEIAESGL
Procedure, shortened: as §1

[3] = biological target: T3, AKT (Homo sapiens, UniProt Q9Y243); assay: Kinase inhibition assay (33P transfer), AKT; conditions: Table 2, kinase inhibition class; read-out: AKT3-1
T3 construct: Kinases are expressed as either kinase domains or full length constructs; made in house
T3 sequence (Q9Y243 whole entry, the tested form may be a part): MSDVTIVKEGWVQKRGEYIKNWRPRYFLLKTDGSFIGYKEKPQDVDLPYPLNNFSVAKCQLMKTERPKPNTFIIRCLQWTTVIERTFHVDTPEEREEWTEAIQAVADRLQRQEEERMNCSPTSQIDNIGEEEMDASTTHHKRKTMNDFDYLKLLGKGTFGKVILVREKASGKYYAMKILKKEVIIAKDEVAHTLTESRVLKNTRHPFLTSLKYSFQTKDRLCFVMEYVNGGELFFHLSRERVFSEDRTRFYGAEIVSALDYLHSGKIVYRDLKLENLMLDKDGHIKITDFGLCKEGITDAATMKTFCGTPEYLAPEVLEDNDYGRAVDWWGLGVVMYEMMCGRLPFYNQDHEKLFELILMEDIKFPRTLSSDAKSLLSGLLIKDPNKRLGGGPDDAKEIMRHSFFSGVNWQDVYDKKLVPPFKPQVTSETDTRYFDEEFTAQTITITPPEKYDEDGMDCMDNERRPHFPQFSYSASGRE
Procedure, shortened: (§2)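 Kinase domains or full-length kinases, GST- or His-tagged and expressed in E. coli or baculovirus/High Five cells, transferred 33PO4 from ATP onto plate-bound poly(Glu,Tyr) 4:1 or poly(Arg,Ser) 3:1. After incubation, plates were washed with 0.5% phosphoric acid and counted by liquid scintillation.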

[4] = biological target: T4, Flt-1 (Homo sapiens, UniProt P17948); assay: Kinase inhibition assay (33P transfer), Flt-1
T4 construct: Kinases are expressed as either kinase domains or full length constructs; made in house
T4 sequence (P17948 27-1338, species assumed): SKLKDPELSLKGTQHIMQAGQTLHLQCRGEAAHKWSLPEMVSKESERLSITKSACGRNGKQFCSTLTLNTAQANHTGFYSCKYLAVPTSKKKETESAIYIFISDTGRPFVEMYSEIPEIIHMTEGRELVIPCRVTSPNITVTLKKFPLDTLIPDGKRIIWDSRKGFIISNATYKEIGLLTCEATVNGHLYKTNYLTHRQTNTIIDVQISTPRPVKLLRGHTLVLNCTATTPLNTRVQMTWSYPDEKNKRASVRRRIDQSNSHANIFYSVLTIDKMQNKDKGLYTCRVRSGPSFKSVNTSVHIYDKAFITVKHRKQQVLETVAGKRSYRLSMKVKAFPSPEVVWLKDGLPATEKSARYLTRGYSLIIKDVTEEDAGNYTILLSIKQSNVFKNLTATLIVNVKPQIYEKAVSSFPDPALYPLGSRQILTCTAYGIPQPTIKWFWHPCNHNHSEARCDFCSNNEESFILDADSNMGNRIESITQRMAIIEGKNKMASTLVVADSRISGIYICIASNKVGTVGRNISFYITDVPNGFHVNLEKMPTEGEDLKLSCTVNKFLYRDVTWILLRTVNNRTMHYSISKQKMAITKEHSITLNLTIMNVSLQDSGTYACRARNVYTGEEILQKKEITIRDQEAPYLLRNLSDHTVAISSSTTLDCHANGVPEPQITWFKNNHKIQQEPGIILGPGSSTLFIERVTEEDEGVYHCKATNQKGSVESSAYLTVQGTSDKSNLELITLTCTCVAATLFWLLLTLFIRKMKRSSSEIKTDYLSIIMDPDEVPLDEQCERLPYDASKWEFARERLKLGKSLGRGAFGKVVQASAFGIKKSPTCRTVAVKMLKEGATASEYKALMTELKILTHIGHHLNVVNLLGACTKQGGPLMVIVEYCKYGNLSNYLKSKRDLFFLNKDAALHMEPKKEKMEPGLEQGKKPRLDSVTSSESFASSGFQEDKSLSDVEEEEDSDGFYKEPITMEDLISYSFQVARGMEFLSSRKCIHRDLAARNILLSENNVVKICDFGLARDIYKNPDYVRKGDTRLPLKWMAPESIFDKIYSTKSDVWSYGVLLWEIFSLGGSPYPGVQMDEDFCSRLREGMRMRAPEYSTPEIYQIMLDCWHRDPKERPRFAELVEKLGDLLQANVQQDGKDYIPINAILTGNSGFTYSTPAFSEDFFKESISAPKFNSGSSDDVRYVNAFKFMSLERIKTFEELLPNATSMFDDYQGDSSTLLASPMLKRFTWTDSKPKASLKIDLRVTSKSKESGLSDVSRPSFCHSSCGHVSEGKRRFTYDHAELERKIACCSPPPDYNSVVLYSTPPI
Procedure, shortened: as §1

[5] = biological target: T5, Ret-1 (Homo sapiens, UniProt P07949); assay: Kinase inhibition assay (33P transfer), Ret; conditions: Table 6, Ret-1 kinase inhibition class
T5 construct: Kinases are expressed as either kinase domains or full length constructs; made in house

[6] = biological target: T6, ErbB2 (Homo sapiens, UniProt P04626); assay: Kinase inhibition assay (33P transfer), ErbB2; conditions: read-out: ErbB2-2
T6 construct: Kinases are expressed as either kinase domains or full length constructs; made in house
Procedure, shortened: as §1

[7] = biological target: T7, Lyn (Homo sapiens, UniProt P07948); assay: Kinase inhibition assay (33P transfer), Lyn; conditions: Table 6, Lyn-1 kinase inhibition class
T7 construct: Kinases are expressed as either kinase domains or full length constructs; made in house
T7 sequence (P07948 whole entry, species assumed, the tested form may be a part): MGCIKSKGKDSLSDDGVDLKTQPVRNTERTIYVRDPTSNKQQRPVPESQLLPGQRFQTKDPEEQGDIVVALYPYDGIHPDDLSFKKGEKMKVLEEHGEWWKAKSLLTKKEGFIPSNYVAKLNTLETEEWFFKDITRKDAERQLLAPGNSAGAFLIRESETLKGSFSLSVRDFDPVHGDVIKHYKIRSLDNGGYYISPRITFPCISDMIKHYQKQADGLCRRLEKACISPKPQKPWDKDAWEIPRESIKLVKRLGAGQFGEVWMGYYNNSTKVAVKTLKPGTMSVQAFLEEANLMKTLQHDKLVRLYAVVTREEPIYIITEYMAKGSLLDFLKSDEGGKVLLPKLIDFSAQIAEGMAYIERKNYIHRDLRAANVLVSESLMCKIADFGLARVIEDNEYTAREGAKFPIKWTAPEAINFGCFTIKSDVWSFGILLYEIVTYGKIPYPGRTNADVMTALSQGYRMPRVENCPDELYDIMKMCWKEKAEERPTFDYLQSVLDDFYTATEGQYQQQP
Procedure, shortened: as §1

[8] = biological target: T8, Src (Homo sapiens, UniProt P12931); assay: Kinase inhibition assay (33P transfer), Src; conditions: Table 6, Src-1 kinase inhibition class
T8 construct: Kinases are expressed as either kinase domains or full length constructs; made in house
T8 sequence (P12931 whole entry, species assumed, the tested form may be a part): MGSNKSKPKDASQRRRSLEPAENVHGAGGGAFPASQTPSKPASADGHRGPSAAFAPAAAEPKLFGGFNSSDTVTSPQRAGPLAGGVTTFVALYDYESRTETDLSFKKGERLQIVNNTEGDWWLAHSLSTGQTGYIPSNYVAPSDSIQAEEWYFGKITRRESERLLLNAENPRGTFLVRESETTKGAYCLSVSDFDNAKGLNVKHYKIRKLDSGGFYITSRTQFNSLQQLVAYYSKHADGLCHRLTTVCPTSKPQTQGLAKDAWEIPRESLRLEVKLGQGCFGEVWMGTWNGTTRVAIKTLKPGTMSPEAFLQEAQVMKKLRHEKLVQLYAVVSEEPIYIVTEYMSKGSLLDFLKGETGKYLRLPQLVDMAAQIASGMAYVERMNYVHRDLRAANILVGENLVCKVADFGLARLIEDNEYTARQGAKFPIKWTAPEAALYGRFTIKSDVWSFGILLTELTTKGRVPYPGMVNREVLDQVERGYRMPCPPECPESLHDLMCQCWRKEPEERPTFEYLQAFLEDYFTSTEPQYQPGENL
Procedure, shortened: as §1

[9] = biological target: T9, Lck (Homo sapiens, UniProt P06239); assay: Kinase inhibition assay (33P transfer), Lck; conditions: Table 3; read-out: Lck-1
T9 construct: Kinases are expressed as either kinase domains or full length constructs; made in house
Procedure, shortened: as §2

[10] = biological target: T10, Hck-1 (Homo sapiens, UniProt P08631); assay: Kinase inhibition assay (33P transfer), Hck; conditions: Table 6, Hck-1 kinase inhibition class
T10 construct: Kinases are expressed as either kinase domains or full length constructs; made in house

[11] = biological target: T11, FGFR1 (Homo sapiens, UniProt P11362); assay: Kinase inhibition assay (33P transfer), FGFR1; conditions: read-out: FGFR1-1
T11 construct: Kinases are expressed as either kinase domains or full length constructs; made in house
T11 sequence (P11362 22-822, species assumed): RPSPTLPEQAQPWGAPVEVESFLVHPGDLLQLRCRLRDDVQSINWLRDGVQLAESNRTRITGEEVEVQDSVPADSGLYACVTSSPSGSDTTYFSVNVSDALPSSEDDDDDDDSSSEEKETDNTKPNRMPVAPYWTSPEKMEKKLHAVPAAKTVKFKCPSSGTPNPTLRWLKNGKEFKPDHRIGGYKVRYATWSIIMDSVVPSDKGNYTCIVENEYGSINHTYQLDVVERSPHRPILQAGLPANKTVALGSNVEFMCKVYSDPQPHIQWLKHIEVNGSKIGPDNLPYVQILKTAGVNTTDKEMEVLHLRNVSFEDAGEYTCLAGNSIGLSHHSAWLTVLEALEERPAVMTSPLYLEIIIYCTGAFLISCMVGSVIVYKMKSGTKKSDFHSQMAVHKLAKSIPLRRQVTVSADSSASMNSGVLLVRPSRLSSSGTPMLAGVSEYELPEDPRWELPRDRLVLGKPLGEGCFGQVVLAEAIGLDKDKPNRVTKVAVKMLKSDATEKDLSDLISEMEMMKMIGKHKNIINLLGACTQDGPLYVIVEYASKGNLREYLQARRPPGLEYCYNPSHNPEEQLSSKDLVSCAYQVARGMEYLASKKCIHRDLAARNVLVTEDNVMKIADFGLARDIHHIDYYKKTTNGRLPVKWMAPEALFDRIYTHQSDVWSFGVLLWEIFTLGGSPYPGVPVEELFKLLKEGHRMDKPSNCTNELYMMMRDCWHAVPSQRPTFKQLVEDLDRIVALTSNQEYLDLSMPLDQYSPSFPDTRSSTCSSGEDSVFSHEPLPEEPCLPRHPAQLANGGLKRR

[12] = biological target: T12, c-Met (Homo sapiens, UniProt P08581); assay: Kinase inhibition assay (33P transfer), c-Met; conditions: Table 2, kinase inhibition class; read-out: Met-1
T12 construct: Kinases are expressed as either kinase domains or full length constructs; made in house
Procedure, shortened: as §1

[13] = biological target: T13, ErbB4 (Homo sapiens, UniProt Q15303); assay: Kinase inhibition assay (33P transfer), ErbB4; conditions: read-out: ErbB4-1
T13 construct: Kinases are expressed as either kinase domains or full length constructs; made in house

[14] = biological target: T14, Tek (Homo sapiens, UniProt Q02763); assay: Kinase inhibition assay (33P transfer), Tek; conditions: read-out: Tek-1
T14 construct: Kinases are expressed as either kinase domains or full length constructs; made in house
T14 sequence (Q02763 23-1124, species assumed): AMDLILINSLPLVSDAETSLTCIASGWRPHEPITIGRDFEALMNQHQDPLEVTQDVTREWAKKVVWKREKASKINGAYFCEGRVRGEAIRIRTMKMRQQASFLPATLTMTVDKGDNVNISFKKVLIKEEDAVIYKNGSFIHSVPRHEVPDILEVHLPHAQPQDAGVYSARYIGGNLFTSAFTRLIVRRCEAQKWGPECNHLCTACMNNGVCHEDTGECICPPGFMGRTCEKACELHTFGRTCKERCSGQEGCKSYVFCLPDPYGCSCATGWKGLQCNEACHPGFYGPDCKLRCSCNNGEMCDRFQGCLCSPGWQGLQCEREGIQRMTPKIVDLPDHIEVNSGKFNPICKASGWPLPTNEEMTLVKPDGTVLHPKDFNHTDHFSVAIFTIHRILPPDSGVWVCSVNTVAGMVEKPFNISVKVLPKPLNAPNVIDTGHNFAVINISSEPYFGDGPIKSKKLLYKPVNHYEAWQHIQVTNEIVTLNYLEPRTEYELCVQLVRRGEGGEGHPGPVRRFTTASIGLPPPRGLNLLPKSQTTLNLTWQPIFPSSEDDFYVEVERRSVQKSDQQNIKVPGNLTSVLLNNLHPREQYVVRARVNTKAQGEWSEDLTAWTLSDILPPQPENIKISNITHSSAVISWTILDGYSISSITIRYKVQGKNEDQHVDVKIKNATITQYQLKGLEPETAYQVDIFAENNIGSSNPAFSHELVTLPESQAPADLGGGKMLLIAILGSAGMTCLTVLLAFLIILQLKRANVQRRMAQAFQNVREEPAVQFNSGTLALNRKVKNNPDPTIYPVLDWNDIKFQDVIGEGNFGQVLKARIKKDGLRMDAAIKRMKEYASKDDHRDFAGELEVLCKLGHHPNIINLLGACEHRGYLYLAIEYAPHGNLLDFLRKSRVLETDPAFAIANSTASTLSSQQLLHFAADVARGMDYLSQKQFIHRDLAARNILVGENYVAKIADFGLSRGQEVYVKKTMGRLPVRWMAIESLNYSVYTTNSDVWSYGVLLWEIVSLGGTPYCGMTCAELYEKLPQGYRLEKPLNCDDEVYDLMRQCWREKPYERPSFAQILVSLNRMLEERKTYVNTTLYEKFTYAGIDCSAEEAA
Procedure, shortened: as §1

| SMILES | IC50 [1] [µM] | IC50 [2] [µM] | IC50 [3] [µM] | IC50 [4] [µM] | IC50 [5] [µM] | IC50 [6] [µM] | IC50 [7] [µM] | IC50 [8] [µM] | IC50 [9] [µM] | IC50 [10] [µM] | IC50 [11] [µM] | IC50 [12] [µM] | IC50 [13] [µM] | IC50 [14] [µM] |
| --- | --- | --- | --- | --- | --- | --- | --- | --- | --- | --- | --- | --- | --- | --- |
| COc1cc(Nc2ncnc(-n3c(N)nc4ccccc43)n2)cc(OC)c1OC [Compound 289] | > 11.4 | 1.02 to 6.1 | > 11.4 | < 1.02 | 1.02 to 6.1 | > 11.4 | 6.1 to 8.9 | 1.02 to 6.1 | < 1.02 | > 11.4 | < 1.02 | 1.02 to 6.1 | > 11.4 | 1.02 to 6.1 |
| COc1cc(Nc2ncnc(Nc3cccc(C)c3)n2)cc(OC)c1OC [Compound 64] | < 1.09 | > 12.2 | > 12.2 | > 12.2 | > 12.2 | 1.09 to 6.53 | < 1.09 | < 1.09 | 1.09 to 6.53 | > 12.2 | > 12.2 | 6.53 to 9.53 | > 12.2 | > 12.2 |
| O=C1OCc2ccc(Nc3ncnc(Nc4cc(-c5ccco5)n[nH]4)n3)cc21 [Compound 364] | 1.07 to 6.39 | 6.39 to 9.32 | > 12 | 1.07 to 6.39 | 1.07 to 6.39 |  | 9.32 to 12 | > 12 | 6.39 to 9.32 | > 12 | 1.07 to 6.39 | 1.07 to 6.39 | > 12 | > 12 |
| COc1cc(Nc2ncnc(-n3cc(CC(N)=O)c4ccccc43)n2)cc(OC)c1OC [Compound 353] | > 10.4 | 0.921 to 5.52 | > 10.4 | < 0.921 | < 0.921 |  | > 10.4 | > 10.4 | 8.06 to 10.4 | > 10.4 | 0.921 to 5.52 | > 10.4 | > 10.4 | > 10.4 |
| NC(=O)c1ccc(Nc2ncnc(Nc3cc(-c4ccco4)n[nH]3)n2)cc1 [Compound 341] | 6.62 to 9.66 | 6.62 to 9.66 | > 12.4 | < 1.1 | < 1.1 |  | > 12.4 | > 12.4 | 6.62 to 9.66 | > 12.4 | < 1.1 | 1.1 to 6.62 | > 12.4 | > 12.4 |

Second part, the compound after the results:

| IC50 [1] [µM] | IC50 [2] [µM] | IC50 [3] [µM] | IC50 [4] [µM] | IC50 [5] [µM] | IC50 [6] [µM] | IC50 [7] [µM] | IC50 [8] [µM] | IC50 [9] [µM] | IC50 [10] [µM] | IC50 [11] [µM] | IC50 [12] [µM] | IC50 [13] [µM] | IC50 [14] [µM] | SMILES |
| --- | --- | --- | --- | --- | --- | --- | --- | --- | --- | --- | --- | --- | --- | --- |
| < 1.02 | 6.12 to 8.92 | 8.92 to 11.5 | < 1.02 | < 1.02 | < 1.02 | < 1.02 | < 1.02 | < 1.02 | > 11.5 | 1.02 to 6.12 | 6.12 to 8.92 | 1.02 to 6.12 | > 11.5 | COc1cc(Nc2ncnc(Nc3ccc4[nH]ccc4c3)n2)cc(OC)c1OC [Compound 928] |
| < 0.991 | > 11.2 | > 11.2 | > 11.2 | > 11.2 | < 0.991 | 0.991 to 5.95 | > 11.2 | < 0.991 | > 11.2 | 5.95 to 8.68 | > 11.2 | > 11.2 | > 11.2 | COc1cc(Nc2ncnc(Nc3cccc4ccccc34)n2)cc(OC)c1OC [Compound 98] |
| < 1.08 | 1.08 to 6.5 | > 12.2 | < 1.08 | < 1.08 |  | < 1.08 | < 1.08 | 1.08 to 6.5 | 1.08 to 6.5 | < 1.08 | > 12.2 | 1.08 to 6.5 | > 12.2 | COc1cc(Nc2ncnc(Nc3cccc(O)c3)n2)cc(OC)c1OC [Compound 78] |
| < 1.08 | > 12.1 | > 12.1 | 1.08 to 6.46 | 1.08 to 6.46 |  | 1.08 to 6.46 | 1.08 to 6.46 | 9.42 to 12.1 | > 12.1 | > 12.1 | > 12.1 | > 12.1 | > 12.1 | COc1cc(Nc2ncnc(Nc3ccccc3F)n2)cc(OC)c1OC [Compound 65] |
